From US20230085307A1, “PYRIDAZINONE COMPOUND AND HERBICIDE” (NISSAN CHEMICAL CORPORATION, priority 2019, published 2023)

Legend:
[1] = tested on: chickweed; test: Test Example 5: herbicidal effect by foliage application, plastic box (Table 20, symbol P); type: in vivo, common chickweed (Stellaria media); settings: foliage application, AAH 320 g/ha, evaluated three weeks after application
How it was run: (§1)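 Plants were sown into sterilized diluvial soil under about 1.5 cm cover and kept in a greenhouse at 25° C. to 30° C. Fourteen days on, foliage received an even spray of the diluted emulsion. Herbicidal or crop effect was judged three weeks afterwards.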

[2] = tested on: rice flat sedge; test: Test Example 3: herbicidal effect by foliage application, Wagner pot (Table 18, symbol E); type: in vivo, rice flat sedge (Cyperus iria); settings: amount of applied herbicide 320 g/ha
How it was run: (§2)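 Plants were sown in alluvial soil held under 0.1–0.5 cm standing water and grown 14 days in a greenhouse at 25–30 °C. An emulsifiable formulation, water-diluted to the set dose, was then sprayed onto the foliage, and effects were scored three weeks later using previously defined criteria.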

[3] = tested on: Chinese sprangletop; test: Test Example 3: herbicidal effect by foliage application, Wagner pot (Table 18, symbol D); type: in vivo, chinese sprangletop (Leptochloa chinensis); settings: amount of applied herbicide 320 g/ha
How it was run: as §2

[4] = tested on: green foxtail; test: Test Example 5: herbicidal effect by foliage application, plastic box (Table 20, symbol G); type: in vivo, green foxtail (Setaria viridis); settings: foliage application, AAH 320 g/ha, evaluated three weeks after application
How it was run: as §1

[5] = tested on: persian speedwell; test: Test Example 4: herbicidal effect by soil treatment (Table 19, symbol R); type: in vivo, Persian speedwell (Veronica persica); settings: amount of applied herbicide 320 g/ha
How it was run: (§3)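 Pre-emergence style soil spray: seeds under ~1.5 cm sterilized diluvial soil received a uniform coat of emulsion diluted to the predetermined herbicide amount. Greenhouse 25–30° C; readout at week three on previously defined criteria.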

[6] = tested on: green foxtail; test: Test Example 4: herbicidal effect by soil treatment (Table 19, symbol G); type: in vivo, green foxtail (Setaria viridis); settings: amount of applied herbicide 320 g/ha
How it was run: as §3

[7] = tested on: windgrass; test: Test Example 4: herbicidal effect by soil treatment (Table 19, symbol L); type: in vivo, windgrass (Apera spica-venti); settings: amount of applied herbicide 320 g/ha
How it was run: as §3

[8] = tested on: redroot pigweed; test: Test Example 5: herbicidal effect by foliage application, plastic box (Table 20, symbol N); type: in vivo, redroot pigweed (Amaranthus retroflexus); settings: foliage application, AAH 320 g/ha, evaluated three weeks after application
How it was run: as §1

[9] = tested on: Italian ryegrass; test: Test Example 4: herbicidal effect by soil treatment (Table 19, symbol K); type: in vivo, Italian ryegrass (Lolium multiflorum); settings: amount of applied herbicide 320 g/ha
How it was run: as §3

[10] = tested on: southern crabgrass; test: Test Example 5: herbicidal effect by foliage application, plastic box (Table 20, symbol F); type: in vivo, southern crabgrass (Digitaria ciliaris); settings: foliage application, AAH 320 g/ha, evaluated three weeks after application
How it was run: as §1

[11] = tested on: velvetleaf; test: Test Example 4: herbicidal effect by soil treatment (Table 19, symbol M); type: in vivo, velvetleaf (Abutilon theophrasti); settings: amount of applied herbicide 320 g/ha
How it was run: as §3

[12] = tested on: lambsquarters; test: Test Example 4: herbicidal effect by soil treatment (Table 19, symbol O); type: in vivo, lambsquarters (Chenopodium album); settings: amount of applied herbicide 320 g/ha
How it was run: as §3

[13] = tested on: wild oat; test: Test Example 4: herbicidal effect by soil treatment (Table 19, symbol I); type: in vivo, wild oat (Avena fatua); settings: amount of applied herbicide 320 g/ha
How it was run: as §3

[14] = tested on: chickweed; test: Test Example 4: herbicidal effect by soil treatment (Table 19, symbol P); type: in vivo, common chickweed (Stellaria media); settings: amount of applied herbicide 320 g/ha
How it was run: as §3

[15] = tested on: redroot pigweed; test: Test Example 4: herbicidal effect by soil treatment (Table 19, symbol N); type: in vivo, redroot pigweed (Amaranthus retroflexus); settings: amount of applied herbicide 320 g/ha
How it was run: as §3

[16] = tested on: barnyard grass; test: Test Example 3: herbicidal effect by foliage application, Wagner pot (Table 18, symbol H); type: in vivo, barnyard grass (Echinochloa crus-galli); settings: amount of applied herbicide 320 g/ha
How it was run: as §2

[17] = tested on: wild oat; test: Test Example 5: herbicidal effect by foliage application, plastic box (Table 20, symbol I); type: in vivo, wild oat (Avena fatua); settings: foliage application, AAH 320 g/ha, evaluated three weeks after application
How it was run: as §1

[18] = tested on: windgrass; test: Test Example 5: herbicidal effect by foliage application, plastic box (Table 20, symbol L); type: in vivo, windgrass (Apera spica-venti); settings: foliage application, AAH 320 g/ha, evaluated three weeks after application
How it was run: as §1

[19] = tested on: Japanese bulrush; test: Test Example 1: herbicidal activity, application before weed generation under submerged conditions (Table 16, symbol B); type: in vivo, Japanese bulrush (Schoenoplectus juncoides); settings: amount of applied herbicide 320 g/ha
How it was run: (§4)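 Emulsion formulation, water-diluted to set dose, was put onto the flooded surface (4 cm depth, alluvial soil) the same day weeds were sown and 2.5-leaf rice transplanted. After 3 weeks at 25-30 °C under glass, each species was rated 0 (≤5% kill) to 5 (≥90% kill).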

[20] = tested on: late watergrass; test: Test Example 1: herbicidal activity, application before weed generation under submerged conditions (Table 16, symbol A); type: in vivo, late watergrass (Echinochloa oryzicola); settings: amount of applied herbicide 320 g/ha
How it was run: as §4

[21] = tested on: blackgrass; test: Test Example 4: herbicidal effect by soil treatment (Table 19, symbol J); type: in vivo, blackgrass (Alopecurus myosuroides); settings: amount of applied herbicide 320 g/ha
How it was run: as §3

[22] = tested on: blackgrass; test: Test Example 5: herbicidal effect by foliage application, plastic box (Table 20, symbol J); type: in vivo, blackgrass (Alopecurus myosuroides); settings: foliage application, AAH 320 g/ha, evaluated three weeks after application
How it was run: as §1

[23] = tested on: barnyard grass; test: Test Example 5: herbicidal effect by foliage application, plastic box (Table 20, symbol H); type: in vivo, barnyard grass (Echinochloa crus-galli); settings: foliage application, AAH 320 g/ha, evaluated three weeks after application
How it was run: as §1

[24] = tested on: persian speedwell; test: Test Example 5: herbicidal effect by foliage application, plastic box (Table 20, symbol R); type: in vivo, Persian speedwell (Veronica persica); settings: foliage application, AAH 320 g/ha, evaluated three weeks after application
How it was run: as §1

[25] = tested on: southern crabgrass; test: Test Example 4: herbicidal effect by soil treatment (Table 19, symbol F); type: in vivo, southern crabgrass (Digitaria ciliaris); settings: amount of applied herbicide 320 g/ha
How it was run: as §3

[26] = tested on: barnyard grass; test: Test Example 4: herbicidal effect by soil treatment (Table 19, symbol H); type: in vivo, barnyard grass (Echinochloa crus-galli); settings: amount of applied herbicide 320 g/ha
How it was run: as §3

[27] = tested on: oval-leafed pondweed; test: Test Example 1: herbicidal activity, application before weed generation under submerged conditions (Table 16, symbol C); type: in vivo, oval-leafed pondweed (Monochoria vaginalis); settings: amount of applied herbicide 320 g/ha
How it was run: as §4

[28] = tested on: Italian ryegrass; test: Test Example 5: herbicidal effect by foliage application, plastic box (Table 20, symbol K); type: in vivo, Italian ryegrass (Lolium multiflorum); settings: foliage application, AAH 320 g/ha, evaluated three weeks after application
How it was run: as §1

[29] = tested on: velvetleaf; test: Test Example 5: herbicidal effect by foliage application, plastic box (Table 20, symbol M); type: in vivo, velvetleaf (Abutilon theophrasti); settings: foliage application, AAH 320 g/ha, evaluated three weeks after application
How it was run: as §1

[30] = tested on: lambsquarters; test: Test Example 5: herbicidal effect by foliage application, plastic box (Table 20, symbol O); type: in vivo, lambsquarters (Chenopodium album); settings: foliage application, AAH 320 g/ha, evaluated three weeks after application
How it was run: as §1

Row | SMILES | P: chickweed, herbicidal effect (criteria 0-5) [1] | herbicidal effect on E: rice flat sedge [2] | herbicidal effect on D: Chinese sprangletop [3] | G: green foxtail, herbicidal effect (criteria 0-5) [4] | herbicidal effect, R: persian speedwell [5] | herbicidal effect, G: green foxtail [6] | herbicidal effect, L: windgrass [7] | N: redroot pigweed, herbicidal effect (criteria 0-5) [8] | herbicidal effect, K: Italian ryegrass [9] | F: southern crabgrass, herbicidal effect (criteria 0-5) [10] | herbicidal effect, M: velvetleaf [11] | herbicidal effect, O: lambsquarters [12] | herbicidal effect, I: wild oat [13] | herbicidal effect, P: chickweed [14] | herbicidal effect, N: redroot pigweed [15] | herbicidal effect on H: barnyard grass [16] | I: wild oat, herbicidal effect (criteria 0-5) [17] | L: windgrass, herbicidal effect (criteria 0-5) [18] | Herbicidal effect, B: Japanese bulrush [19] | Herbicidal effect, A: late watergrass [20] | further results
1 | CCCC(=O)Oc1c(C)nn(C)c(=O)c1-c1c(-c2cnccc2C(F)(F)F)sc2ccc(F)cc12 [2-388] | 5 (Herbicidal rate of 90% or more (almost completely withered)) | 3 (Herbicidal rate of 40% or more and less than 70%) | 3 (Herbicidal rate of 40% or more and less than 70%) | 3 (Herbicidal rate of 40% or more and less than 70%) | 5 (Herbicidal rate of 90% or more (almost completely withered)) | 0 (Herbicidal rate of 5% or less (almost no effect)) | 0 (Herbicidal rate of 5% or less (almost no effect)) | 4 (Herbicidal rate of 70% or more and less than 90%) | 0 (Herbicidal rate of 5% or less (almost no effect)) | 1 (Herbicidal rate of 5% or more and less than 20%) | 0 (Herbicidal rate of 5% or less (almost no effect)) | 2 (Herbicidal rate of 20% or more and less than 40%) | 0 (Herbicidal rate of 5% or less (almost no effect)) | 5 (Herbicidal rate of 90% or more (almost completely withered)) | 1 (Herbicidal rate of 5% or more and less than 20%) | 5 (Herbicidal rate of 90% or more (almost completely withered)) | 3 (Herbicidal rate of 40% or more and less than 70%) | 4 (Herbicidal rate of 70% or more and less than 90%) | 0 (Herbicidal rate of 5% or less (almost no effect)) | 5 (Herbicidal rate of 90% or more (almost completely withered)) | herbicidal effect, J: blackgrass [21]: 0 (Herbicidal rate of 5% or less (almost no effect)); J: blackgrass, herbicidal effect (criteria 0-5) [22]: 1 (Herbicidal rate of 5% or more and less than 20%); H: barnyard grass, herbicidal effect (criteria 0-5) [23]: 4 (Herbicidal rate of 70% or more and less than 90%); R: persian speedwell, herbicidal effect (criteria 0-5) [24]: 5 (Herbicidal rate of 90% or more (almost completely withered)); herbicidal effect, F: southern crabgrass [25]: 0 (Herbicidal rate of 5% or less (almost no effect)); herbicidal effect, H: barnyard grass [26]: 3 (Herbicidal rate of 40% or more and less than 70%); Herbicidal effect, C: oval-leafed pondweed [27]: 0 (Herbicidal rate of 5% or less (almost no effect)); K: Italian ryegrass, herbicidal effect (criteria 0-5) [28]: 3 (Herbicidal rate of 40% or more and less than 70%); M: velvetleaf, herbicidal effect (criteria 0-5) [29]: 5 (Herbicidal rate of 90% or more (almost completely withered)); O: lambsquarters, herbicidal effect (criteria 0-5) [30]: 4 (Herbicidal rate of 70% or more and less than 90%)
2 | CSc1ccncc1-c1sc2ccc(F)cc2c1-c1c(O)c(C)nn(C)c1=O [2-389] | 5 (Herbicidal rate of 90% or more (almost completely withered)) | 5 (Herbicidal rate of 90% or more (almost completely withered)) | 3 (Herbicidal rate of 40% or more and less than 70%) | 5 (Herbicidal rate of 90% or more (almost completely withered)) | 5 (Herbicidal rate of 90% or more (almost completely withered)) | 3 (Herbicidal rate of 40% or more and less than 70%) | 1 (Herbicidal rate of 5% or more and less than 20%) | 5 (Herbicidal rate of 90% or more (almost completely withered)) | 3 (Herbicidal rate of 40% or more and less than 70%) | 5 (Herbicidal rate of 90% or more (almost completely withered)) | 3 (Herbicidal rate of 40% or more and less than 70%) | 5 (Herbicidal rate of 90% or more (almost completely withered)) | 1 (Herbicidal rate of 5% or more and less than 20%) | 4 (Herbicidal rate of 70% or more and less than 90%) | 5 (Herbicidal rate of 90% or more (almost completely withered)) | 5 (Herbicidal rate of 90% or more (almost completely withered)) | 4 (Herbicidal rate of 70% or more and less than 90%) | 4 (Herbicidal rate of 70% or more and less than 90%) | 0 (Herbicidal rate of 5% or less (almost no effect)) | 3 (Herbicidal rate of 40% or more and less than 70%) | herbicidal effect, J: blackgrass [21]: 0 (Herbicidal rate of 5% or less (almost no effect)); J: blackgrass, herbicidal effect (criteria 0-5) [22]: 3 (Herbicidal rate of 40% or more and less than 70%); H: barnyard grass, herbicidal effect (criteria 0-5) [23]: 5 (Herbicidal rate of 90% or more (almost completely withered)); R: persian speedwell, herbicidal effect (criteria 0-5) [24]: 5 (Herbicidal rate of 90% or more (almost completely withered)); herbicidal effect, F: southern crabgrass [25]: 1 (Herbicidal rate of 5% or more and less than 20%); herbicidal effect, H: barnyard grass [26]: 3 (Herbicidal rate of 40% or more and less than 70%); Herbicidal effect, C: oval-leafed pondweed [27]: 0 (Herbicidal rate of 5% or less (almost no effect)); K: Italian ryegrass, herbicidal effect (criteria 0-5) [28]: 4 (Herbicidal rate of 70% or more and less than 90%); M: velvetleaf, herbicidal effect (criteria 0-5) [29]: 5 (Herbicidal rate of 90% or more (almost completely withered)); O: lambsquarters, herbicidal effect (criteria 0-5) [30]: 5 (Herbicidal rate of 90% or more (almost completely withered))
